Measured values: ChEMBL document CHEMBL4196079, “Molecular interaction of novel benzothiazolyl triazolium analogues with calf thymus DNA and HSA-their biological investigation as potent antimicrobial agents” (Eur J Med Chem, 2018)
≈ marks a conversion by molar mass, not a printed value.

Key:
Shigella dysenteriae = assay: Antibacterial activity against Shigella dysenteriae after 24 hrs by NCCLS micro broth dilution method; type: functional
Escherichia coli [1] = assay: Antibacterial activity against Escherichia coli JM109 after 24 hrs by NCCLS micro broth dilution method; type: functional; details: JM109, 24 h
Pseudomonas aeruginosa = assay: Antibacterial activity against Pseudomonas aeruginosa ATCC 27853 after 24 hrs by NCCLS micro broth dilution method; type: functional; details: ATCC 27853, 24 h
Salmonella typhi = assay: Antibacterial activity against Salmonella typhi after 24 hrs by NCCLS micro broth dilution method; type: functional, Salmonella enterica subsp. enterica serovar Typhi; details: Salmonella enterica
Bacillus = assay: Antibacterial activity against Bacillus proteus ATCC 13315 after 24 hrs by NCCLS micro broth dilution method; type: functional; details: ATCC 13315, 24 h
Micrococcus luteus = assay: Antibacterial activity against Micrococcus luteus ATCC 4698 after 24 hrs by micro broth dilution method; type: functional; details: ATCC 4698, 24 h
Staphylococcus aureus [2] = assay: Antibacterial activity against methicillin-resistant Staphylococcus aureus N315 after 24 hrs by NCCLS micro broth dilution method; type: functional; details: N315, 24 h
Escherichia coli [3] = assay: Antibacterial activity against Escherichia coli DH52 after 24 hrs by NCCLS micro broth dilution method; type: functional; details: DH52, 24 h
Candida albicans = assay: Antifungal activity against Candida albicans ATCC 76615 after 24 hrs by NCCLS micro broth dilution method; type: functional; details: ATCC 76615, 24 h
Saccharomyces cerevisiae = assay: Antifungal activity against Saccharomyces cerevisiae after 24 hrs by NCCLS micro broth dilution method; type: functional
Bacillus subtilis = assay: Antibacterial activity against Bacillus subtilis ATCC 21216 after 24 hrs by NCCLS micro broth dilution method; type: functional; details: ATCC 21216, 24 h
Pichia norvegensis = assay: Antifungal activity against Candida mycoderma after 24 hrs by NCCLS micro broth dilution method; type: functional
Staphylococcus aureus [4] = assay: Antibacterial activity against Staphylococcus aureus ATCC 25923 after 24 hrs by NCCLS micro broth dilution method; type: functional; details: ATCC 25923, 24 h
Cyberlindnera jadinii = assay: Antifungal activity against Candida utilis after 24 hrs by NCCLS micro broth dilution method; type: functional; details: Williopsis jadinii
Aspergillus flavus = assay: Antifungal activity against Aspergillus flavus after 24 hrs by NCCLS micro broth dilution method; type: functional

SMILES	MIC (Shigella dysenteriae) [mg/L]	MIC (Escherichia coli [1]) [mg/L]	MIC (Pseudomonas aeruginosa) [mg/L]	MIC (Salmonella typhi) [mg/L]	MIC (Bacillus) [mg/L]	MIC (Micrococcus luteus) [mg/L]	MIC (Staphylococcus aureus [2]) [mg/L]	MIC (Escherichia coli [3]) [mg/L]	MIC (Candida albicans) [mg/L]	MIC (Saccharomyces cerevisiae) [mg/L]	MIC (Bacillus subtilis) [mg/L]	MIC (Pichia norvegensis) [mg/L]	MIC (Staphylococcus aureus [4]) [mg/L]	MIC (Cyberlindnera jadinii) [mg/L]	MIC (Aspergillus flavus) [mg/L]
CCCCCCCn1cc(COCc2c(-c3ccccc3)nc3sc4cc(OCC)ccc4n23)nn1	128 (≈ 254 µM)	64 (≈ 127 µM)	128 (≈ 254 µM)	128 (≈ 254 µM)	128 (≈ 254 µM)	128 (≈ 254 µM)	64 (≈ 127 µM)	128 (≈ 254 µM)	32 (≈ 63.5 µM)	64 (≈ 127 µM)	128 (≈ 254 µM)	32 (≈ 63.5 µM)	128 (≈ 254 µM)	64 (≈ 127 µM)	128 (≈ 254 µM)
Fc1cccc(Cn2cc(COCc3c(-c4ccccc4)nc4sc5ccccc5n34)nn2)c1	128 (≈ 273 µM)	16 (≈ 34.1 µM)	128 (≈ 273 µM)	128 (≈ 273 µM)	64 (≈ 136 µM)	128 (≈ 273 µM)	16 (≈ 34.1 µM)	32 (≈ 68.2 µM)	16 (≈ 34.1 µM)	32 (≈ 68.2 µM)	64 (≈ 136 µM)	8 (≈ 17 µM)	128 (≈ 273 µM)	8 (≈ 17 µM)	128 (≈ 273 µM)
CCCCCn1cc(COCc2c(-c3ccccc3)nc3sc4ccccc4n23)nn1	4 (≈ 9.27 µM)	64 (≈ 148 µM)	128 (≈ 297 µM)	4 (≈ 9.27 µM)	64 (≈ 148 µM)	128 (≈ 297 µM)	8 (≈ 18.5 µM)	32 (≈ 74.1 µM)	32 (≈ 74.1 µM)	32 (≈ 74.1 µM)	64 (≈ 148 µM)	16 (≈ 37.1 µM)	64 (≈ 148 µM)	8 (≈ 18.5 µM)	256 (≈ 593 µM)
Fc1ccccc1Cn1cc(COCc2c(-c3ccccc3)nc3sc4ccccc4n23)nn1	128 (≈ 273 µM)	128 (≈ 273 µM)	128 (≈ 273 µM)	64 (≈ 136 µM)	128 (≈ 273 µM)	64 (≈ 136 µM)	32 (≈ 68.2 µM)	128 (≈ 273 µM)	32 (≈ 68.2 µM)	64 (≈ 136 µM)	128 (≈ 273 µM)	16 (≈ 34.1 µM)	64 (≈ 136 µM)	16 (≈ 34.1 µM)	128 (≈ 273 µM)
Clc1ccc(Cn2cc(COCc3c(-c4ccccc4)nc4sc5ccccc5n34)nn2)cc1	128 (≈ 263 µM)	128 (≈ 263 µM)	128 (≈ 263 µM)	64 (≈ 132 µM)	64 (≈ 132 µM)	64 (≈ 132 µM)	64 (≈ 132 µM)	64 (≈ 132 µM)	32 (≈ 65.8 µM)	16 (≈ 32.9 µM)	128 (≈ 263 µM)	32 (≈ 65.8 µM)	64 (≈ 132 µM)	64 (≈ 132 µM)	256 (≈ 527 µM)
CCOc1ccc2c(c1)sc1nc(-c3ccccc3)c(COCc3cn(Cc4cccc(Cl)c4)nn3)n12	64 (≈ 121 µM)	128 (≈ 241 µM)	64 (≈ 121 µM)	16 (≈ 30.2 µM)	512 (≈ 966 µM)	128 (≈ 241 µM)	128 (≈ 241 µM)	64 (≈ 121 µM)	32 (≈ 60.4 µM)	64 (≈ 121 µM)	64 (≈ 121 µM)	32 (≈ 60.4 µM)	128 (≈ 241 µM)	32 (≈ 60.4 µM)	128 (≈ 241 µM)
O=[N+]([O-])c1ccc(Cn2cc(COCc3c(-c4ccccc4)nc4sc5ccccc5n34)nn2)cc1	32 (≈ 64.4 µM)	4 (≈ 8.06 µM)	64 (≈ 129 µM)	8 (≈ 16.1 µM)	32 (≈ 64.4 µM)	64 (≈ 129 µM)	32 (≈ 64.4 µM)	16 (≈ 32.2 µM)	32 (≈ 64.4 µM)	32 (≈ 64.4 µM)	64 (≈ 129 µM)	32 (≈ 64.4 µM)	32 (≈ 64.4 µM)	32 (≈ 64.4 µM)	256 (≈ 516 µM)
OC(Cn1cncn1)(Cn1cncn1)c1ccc(F)cc1F [FLUCONAZOLE]	–	–	–	–	–	–	–	–	1 (≈ 3.27 µM)	16 (≈ 52.2 µM)	–	4 (≈ 13.1 µM)	–	8 (≈ 26.1 µM)	256 (≈ 836 µM)
CCCCCCn1cc(COCc2c(-c3ccccc3)nc3sc4cc(OCC)ccc4n23)nn1	128 (≈ 261 µM)	64 (≈ 131 µM)	128 (≈ 261 µM)	128 (≈ 261 µM)	128 (≈ 261 µM)	128 (≈ 261 µM)	64 (≈ 131 µM)	128 (≈ 261 µM)	64 (≈ 131 µM)	32 (≈ 65.4 µM)	128 (≈ 261 µM)	16 (≈ 32.7 µM)	128 (≈ 261 µM)	16 (≈ 32.7 µM)	128 (≈ 261 µM)
Clc1ccccc1Cn1cc(COCc2c(-c3ccccc3)nc3sc4ccccc4n23)nn1	64 (≈ 132 µM)	8 (≈ 16.5 µM)	128 (≈ 263 µM)	64 (≈ 132 µM)	64 (≈ 132 µM)	128 (≈ 263 µM)	64 (≈ 132 µM)	128 (≈ 263 µM)	16 (≈ 32.9 µM)	64 (≈ 132 µM)	128 (≈ 263 µM)	8 (≈ 16.5 µM)	64 (≈ 132 µM)	64 (≈ 132 µM)	128 (≈ 263 µM)
CCOc1ccc2c(c1)sc1nc(-c3ccccc3)c(COCc3cn(Cc4ccc([N+](=O)[O-])cc4)nn3)n12	128 (≈ 237 µM)	2 (≈ 3.7 µM)	128 (≈ 237 µM)	4 (≈ 7.4 µM)	32 (≈ 59.2 µM)	512 (≈ 947 µM)	128 (≈ 237 µM)	128 (≈ 237 µM)	32 (≈ 59.2 µM)	16 (≈ 29.6 µM)	256 (≈ 474 µM)	8 (≈ 14.8 µM)	128 (≈ 237 µM)	4 (≈ 7.4 µM)	128 (≈ 237 µM)
Fc1ccc(Cn2cc(COCc3c(-c4ccccc4)nc4sc5ccccc5n34)nn2)cc1	128 (≈ 273 µM)	128 (≈ 273 µM)	128 (≈ 273 µM)	128 (≈ 273 µM)	128 (≈ 273 µM)	128 (≈ 273 µM)	64 (≈ 136 µM)	128 (≈ 273 µM)	32 (≈ 68.2 µM)	64 (≈ 136 µM)	128 (≈ 273 µM)	32 (≈ 68.2 µM)	128 (≈ 273 µM)	16 (≈ 34.1 µM)	256 (≈ 545 µM)
CCOc1ccc2c(c1)sc1nc(-c3ccccc3)c(COCc3cn(Cc4ccccc4F)nn3)n12	64 (≈ 125 µM)	128 (≈ 249 µM)	128 (≈ 249 µM)	128 (≈ 249 µM)	64 (≈ 125 µM)	128 (≈ 249 µM)	128 (≈ 249 µM)	128 (≈ 249 µM)	32 (≈ 62.3 µM)	64 (≈ 125 µM)	256 (≈ 498 µM)	32 (≈ 62.3 µM)	128 (≈ 249 µM)	16 (≈ 31.2 µM)	128 (≈ 249 µM)
Clc1ccc(Cn2cc(COCc3c(-c4ccccc4)nc4sc5ccccc5n34)nn2)cc1Cl	32 (≈ 61.5 µM)	64 (≈ 123 µM)	16 (≈ 30.7 µM)	64 (≈ 123 µM)	8 (≈ 15.4 µM)	32 (≈ 61.5 µM)	16 (≈ 30.7 µM)	64 (≈ 123 µM)	32 (≈ 61.5 µM)	64 (≈ 123 µM)	16 (≈ 30.7 µM)	32 (≈ 61.5 µM)	64 (≈ 123 µM)	64 (≈ 123 µM)	256 (≈ 492 µM)
CCOc1ccc2c(c1)sc1nc(-c3ccccc3)c(COCc3cn(Cc4ccccc4Cl)nn3)n12	128 (≈ 241 µM)	128 (≈ 241 µM)	64 (≈ 121 µM)	16 (≈ 30.2 µM)	512 (≈ 966 µM)	128 (≈ 241 µM)	128 (≈ 241 µM)	128 (≈ 241 µM)	8 (≈ 15.1 µM)	64 (≈ 121 µM)	128 (≈ 241 µM)	32 (≈ 60.4 µM)	64 (≈ 121 µM)	32 (≈ 60.4 µM)	128 (≈ 241 µM)
CCCCCCCn1cc(COCc2c(-c3ccccc3)nc3sc4ccccc4n23)nn1	128 (≈ 278 µM)	128 (≈ 278 µM)	64 (≈ 139 µM)	64 (≈ 139 µM)	64 (≈ 139 µM)	128 (≈ 278 µM)	128 (≈ 278 µM)	64 (≈ 139 µM)	32 (≈ 69.6 µM)	32 (≈ 69.6 µM)	128 (≈ 278 µM)	32 (≈ 69.6 µM)	128 (≈ 278 µM)	16 (≈ 34.8 µM)	256 (≈ 557 µM)
CCOc1ccc2c(c1)sc1nc(-c3ccccc3)c(COCc3cn(Cc4ccc(Cl)cc4)nn3)n12	64 (≈ 121 µM)	64 (≈ 121 µM)	32 (≈ 60.4 µM)	64 (≈ 121 µM)	64 (≈ 121 µM)	32 (≈ 60.4 µM)	64 (≈ 121 µM)	64 (≈ 121 µM)	32 (≈ 60.4 µM)	64 (≈ 121 µM)	64 (≈ 121 µM)	16 (≈ 30.2 µM)	64 (≈ 121 µM)	64 (≈ 121 µM)	128 (≈ 241 µM)
Clc1ccc(Cn2cc(COCc3c(-c4ccccc4)nc4sc5ccccc5n34)nn2)c(Cl)c1	64 (≈ 123 µM)	64 (≈ 123 µM)	8 (≈ 15.4 µM)	64 (≈ 123 µM)	32 (≈ 61.5 µM)	32 (≈ 61.5 µM)	32 (≈ 61.5 µM)	16 (≈ 30.7 µM)	32 (≈ 61.5 µM)	64 (≈ 123 µM)	64 (≈ 123 µM)	32 (≈ 61.5 µM)	64 (≈ 123 µM)	32 (≈ 61.5 µM)	256 (≈ 492 µM)
CCn1cc(C(=O)O)c(=O)c2cc(F)c(N3CCNCC3)cc21 [NORFLOXACIN]	16 (≈ 50.1 µM)	1 (≈ 3.13 µM)	16 (≈ 50.1 µM)	4 (≈ 12.5 µM)	8 (≈ 25.1 µM)	2 (≈ 6.26 µM)	8 (≈ 25.1 µM)	1 (≈ 3.13 µM)	–	–	4 (≈ 12.5 µM)	–	2 (≈ 6.26 µM)	–	–
Clc1cccc(Cn2cc(COCc3c(-c4ccccc4)nc4sc5ccccc5n34)nn2)c1	32 (≈ 65.8 µM)	64 (≈ 132 µM)	32 (≈ 65.8 µM)	64 (≈ 132 µM)	64 (≈ 132 µM)	32 (≈ 65.8 µM)	32 (≈ 65.8 µM)	64 (≈ 132 µM)	8 (≈ 16.5 µM)	64 (≈ 132 µM)	32 (≈ 65.8 µM)	16 (≈ 32.9 µM)	64 (≈ 132 µM)	32 (≈ 65.8 µM)	128 (≈ 263 µM)
CCOc1ccc2c(c1)sc1nc(-c3ccccc3)c(COCc3cn(Cc4ccc(F)cc4)nn3)n12	16 (≈ 31.2 µM)	64 (≈ 125 µM)	64 (≈ 125 µM)	32 (≈ 62.3 µM)	64 (≈ 125 µM)	128 (≈ 249 µM)	128 (≈ 249 µM)	32 (≈ 62.3 µM)	8 (≈ 15.6 µM)	32 (≈ 62.3 µM)	64 (≈ 125 µM)	8 (≈ 15.6 µM)	128 (≈ 249 µM)	16 (≈ 31.2 µM)	64 (≈ 125 µM)
